Consider 12 molecules from publication PMC5725665, “Discovery of a Highly Selective Cell‐Active Inhibitor of the Histone Lysine Demethylases KDM2/7” (Angewandte Chemie (International Ed. in English), 2017).

Holding throughout (experiment): biochemical
One experiment deals with JARID1A (KDM5A) (Homo sapiens, UniProt P29375). The arrangement: AlphaScreen histone demethylase activity assay. The text has this:
(§1) A base‐mediated 5‐endo‐trig cyclization of a C‐2‐substituted aromatic imine afforded the racemic indoline core with two adjacent stereocenters. Subsequent acylation of the indoline ring system conferred stability towards oxidation and provided a handle for modulating polarity. Finally, metal‐catalysed cross‐coupling of the aryl bromide provided access to a variety of linkers between the indoline core and pyrrolidine capping group. In total, 45 racemic compounds were synthesized, and IC50 values for inhibition of KDM2A were determined using two orthogonal enzyme activity assays: AlphaScreen25 and RapidFire MS26 (see Section S3.1 in the Supporting Information for complete inhibition data). Key structure–activity relationships are summarized below (Scheme 1 B, compounds 2–12). […] In immunofluorescence assays using HeLa cells ectopically expressing catalytically active KDM2A, a dose‐dependent increase in H3K36me2 staining was observed upon incubation with (S,S)‐6, reflecting augmented cellular H3K36me2 levels (Figure 2 A and Section S3.3). […] To profile its selectivity, (S,S)‐6 was tested for inhibitory activity against a panel of KDMs, methyllysine binding motifs, and epigenetic enzymes.

In experiment [1] the target is T1, JMJD2A (KDM4A) (Homo sapiens, UniProt O75164).
T1 sequence (O75164 1-1064): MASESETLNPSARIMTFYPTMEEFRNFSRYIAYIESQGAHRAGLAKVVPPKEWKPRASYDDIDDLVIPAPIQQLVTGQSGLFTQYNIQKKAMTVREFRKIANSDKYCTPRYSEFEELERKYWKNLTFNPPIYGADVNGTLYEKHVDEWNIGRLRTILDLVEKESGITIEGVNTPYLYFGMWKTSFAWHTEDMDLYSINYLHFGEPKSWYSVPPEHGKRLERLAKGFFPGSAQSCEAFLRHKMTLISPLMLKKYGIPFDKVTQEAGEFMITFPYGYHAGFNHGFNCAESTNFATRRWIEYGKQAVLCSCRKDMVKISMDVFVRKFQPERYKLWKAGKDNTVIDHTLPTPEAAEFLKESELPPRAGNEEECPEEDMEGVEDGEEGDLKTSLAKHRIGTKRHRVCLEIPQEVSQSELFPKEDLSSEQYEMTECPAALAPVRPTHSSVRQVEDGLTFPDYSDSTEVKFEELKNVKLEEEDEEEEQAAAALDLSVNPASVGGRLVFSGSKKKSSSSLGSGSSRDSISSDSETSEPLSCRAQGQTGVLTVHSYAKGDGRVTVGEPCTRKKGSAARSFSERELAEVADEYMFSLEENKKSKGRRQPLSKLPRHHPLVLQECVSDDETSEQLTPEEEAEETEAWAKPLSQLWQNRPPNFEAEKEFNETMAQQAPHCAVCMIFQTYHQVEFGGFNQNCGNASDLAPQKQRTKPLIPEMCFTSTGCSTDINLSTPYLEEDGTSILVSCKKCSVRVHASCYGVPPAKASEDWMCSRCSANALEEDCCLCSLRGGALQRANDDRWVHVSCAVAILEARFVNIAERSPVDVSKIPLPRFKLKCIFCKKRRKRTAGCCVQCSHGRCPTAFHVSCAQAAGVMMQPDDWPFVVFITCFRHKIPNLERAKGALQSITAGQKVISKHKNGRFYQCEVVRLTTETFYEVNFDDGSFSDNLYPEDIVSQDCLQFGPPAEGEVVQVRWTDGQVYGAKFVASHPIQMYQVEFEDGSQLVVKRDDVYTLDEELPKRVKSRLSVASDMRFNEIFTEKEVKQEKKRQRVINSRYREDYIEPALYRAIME
The arrangement: AlphaScreen histone demethylase activity assay. As to conditions: read-out: KDM4A % Inhib. (18.75 uM).

In experiment [2] the target is T1, JMJD2A (KDM4A). The arrangement: AlphaScreen histone demethylase activity assay. Conditions: for IC50: read-out: KDM4A pIC50 (converted); for KDM4A pIC50: inhibitor.
Source text: as §1

The target of another experiment is T2, KDM2A (Homo sapiens, UniProt Q9Y2K7).
T2 construct: isolated enzyme
T2 sequence (Q9Y2K7 1-517 limits assumed): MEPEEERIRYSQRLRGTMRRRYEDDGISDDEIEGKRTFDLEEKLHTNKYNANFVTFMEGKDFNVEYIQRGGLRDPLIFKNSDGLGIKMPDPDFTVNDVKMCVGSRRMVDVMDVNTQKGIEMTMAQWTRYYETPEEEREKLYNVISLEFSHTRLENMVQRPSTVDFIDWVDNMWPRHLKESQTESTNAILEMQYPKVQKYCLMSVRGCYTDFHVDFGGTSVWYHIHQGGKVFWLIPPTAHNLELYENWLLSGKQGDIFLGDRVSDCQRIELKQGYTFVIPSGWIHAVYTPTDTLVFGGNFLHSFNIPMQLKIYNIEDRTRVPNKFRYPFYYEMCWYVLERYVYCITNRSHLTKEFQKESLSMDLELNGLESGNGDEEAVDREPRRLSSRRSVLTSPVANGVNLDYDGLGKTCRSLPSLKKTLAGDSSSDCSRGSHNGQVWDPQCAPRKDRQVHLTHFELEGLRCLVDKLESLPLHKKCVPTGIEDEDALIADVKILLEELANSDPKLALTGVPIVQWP
The arrangement: RapidFire MS histone peptide demethylation assay. As to conditions: for KDM2A RapidFire pIC50: inhibitor. As for the experimental part: [formula] Scheme 1 A) General synthetic strategy for racemic synthesis of KDM2A inhibitors. Reagents and conditions: i) Zn powder (10 equiv), NH4Cl (15 equiv), 5:1 acetone/H2O or H2, Pd/C (10 % w/w), EtOAc; ii) ArCHO (1.3 equiv), MgSO4 (5 equiv), PhMe or ArCHO (1.3 equiv), pyrrolidine (0.1 equiv), 3 Å sieves, CH2Cl2; iii) KO^tBu (1.1 equiv), PhMe, 0 °C; iv) R^3COCl (2–5 equiv), pyridine (2–5 equiv), CH2Cl2; v) metal‐catalysed cross‐coupling. B) Key structure–activity relationships. IC50 values were determined by RapidFire MS and confirmed by AlphaScreen. All compounds are racemic. C) Catalytic enantioselective synthesis. Reagents and conditions: i) CsOH⋅H2O (2.0 equiv), catalyst 14/16 (10 mol %), PhMe, −30 °C. Catalyst 14: 89 %, d.r. 10:1, e.r. 88:12; catalyst 16: 84 %, d.r. 7:1, e.r. 17:83; ii) CH3COCl (2.0 equiv), pyridine (2.0 equiv), CH2Cl2; iii) H2, Pd/C (10 % w/w), 88 % (2 steps); iv) K2CO3 (5 equiv), Br(CH2)7Br (4 equiv), acetone, reflux, 38 %; v) K2CO3 (5 equiv) pyrrolidine (4 equiv), CH3CN, 65 %; vi) PhN(SO2CF3)2 (1.1 equiv), DIPEA (2.0 equiv), CH2Cl2, 0 °C, 85 %; vii) 7‐pyrrolidine‐hept‐1‐yne (1.5 equiv), PdCl2(PPh3)2 (5 mol %), CuI (5 mol %), HN(^iPr)2, 75 °C, 79 %; viii) H2, Pd/C (10 % w/w), MeOH, 74 %. DIPEA=(^iPr)2NEt. A base‐mediated 5‐endo‐trig cyclization of a C‐2‐substituted aromatic imine afforded the racemic indoline core with two adjacent stereocenters. Subsequent acylation of the indoline ring system conferred stability towards oxidation and provided a handle for modulating polarity. Finally, metal‐catalysed cross‐coupling of the aryl bromide provided access to a variety of linkers between the indoline core and pyrrolidine capping group. In total, 45 racemic compounds were synthesized, and IC50 values for inhibition of KDM2A were determined using two orthogonal enzyme activity assays: AlphaScreen25 and RapidFire MS26 (see Section S3.1 in the Supporting Information for complete inhibition data). Key structure–activity relationships are summarized below (Scheme 1 B, compounds 2–12).

Sequence of JARID1A (KDM5A) (P29375 whole entry): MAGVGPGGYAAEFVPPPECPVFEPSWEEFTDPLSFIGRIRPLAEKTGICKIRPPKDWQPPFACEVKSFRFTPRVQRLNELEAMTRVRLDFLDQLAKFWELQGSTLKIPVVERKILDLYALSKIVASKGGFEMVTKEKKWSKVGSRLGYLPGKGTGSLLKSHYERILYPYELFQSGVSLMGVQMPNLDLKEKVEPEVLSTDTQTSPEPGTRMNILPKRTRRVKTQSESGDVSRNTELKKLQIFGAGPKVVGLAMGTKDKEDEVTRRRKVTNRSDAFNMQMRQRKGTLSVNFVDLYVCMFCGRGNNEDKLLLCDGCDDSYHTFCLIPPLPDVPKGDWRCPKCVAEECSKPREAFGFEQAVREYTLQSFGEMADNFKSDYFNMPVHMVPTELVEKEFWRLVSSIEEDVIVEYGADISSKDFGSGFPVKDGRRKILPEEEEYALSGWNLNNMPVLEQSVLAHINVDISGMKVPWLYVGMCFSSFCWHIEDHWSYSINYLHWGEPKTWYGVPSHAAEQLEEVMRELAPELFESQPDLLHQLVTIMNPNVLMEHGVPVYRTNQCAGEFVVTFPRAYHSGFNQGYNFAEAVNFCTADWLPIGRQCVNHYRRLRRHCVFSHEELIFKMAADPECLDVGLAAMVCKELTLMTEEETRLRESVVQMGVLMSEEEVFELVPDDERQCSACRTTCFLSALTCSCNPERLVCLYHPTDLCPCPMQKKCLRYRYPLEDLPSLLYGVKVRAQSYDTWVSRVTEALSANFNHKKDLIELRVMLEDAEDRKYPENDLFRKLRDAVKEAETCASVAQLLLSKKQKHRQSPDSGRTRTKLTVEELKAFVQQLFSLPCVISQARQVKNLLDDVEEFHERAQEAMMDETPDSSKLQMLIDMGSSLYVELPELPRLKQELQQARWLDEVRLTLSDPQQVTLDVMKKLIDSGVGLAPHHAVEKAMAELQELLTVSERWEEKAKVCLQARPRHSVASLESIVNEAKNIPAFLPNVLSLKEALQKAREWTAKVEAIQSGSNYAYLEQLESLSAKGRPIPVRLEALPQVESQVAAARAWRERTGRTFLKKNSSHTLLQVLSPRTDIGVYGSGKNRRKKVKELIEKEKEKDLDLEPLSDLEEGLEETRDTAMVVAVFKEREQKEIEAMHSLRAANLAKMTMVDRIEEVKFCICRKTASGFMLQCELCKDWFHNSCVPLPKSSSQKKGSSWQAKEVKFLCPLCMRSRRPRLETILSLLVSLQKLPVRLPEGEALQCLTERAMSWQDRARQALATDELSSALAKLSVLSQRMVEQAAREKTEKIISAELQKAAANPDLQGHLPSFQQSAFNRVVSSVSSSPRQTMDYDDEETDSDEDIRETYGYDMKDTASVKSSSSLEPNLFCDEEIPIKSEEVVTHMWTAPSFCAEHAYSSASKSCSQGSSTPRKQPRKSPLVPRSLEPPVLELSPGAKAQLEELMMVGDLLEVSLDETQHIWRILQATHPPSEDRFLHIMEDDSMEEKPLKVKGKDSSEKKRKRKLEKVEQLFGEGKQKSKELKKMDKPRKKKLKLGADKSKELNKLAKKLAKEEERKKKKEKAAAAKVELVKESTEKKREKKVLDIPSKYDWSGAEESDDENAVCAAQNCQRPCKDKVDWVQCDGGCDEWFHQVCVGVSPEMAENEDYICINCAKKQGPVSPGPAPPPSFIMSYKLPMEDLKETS

On to `CCOC(=O)C1(C#N)c2ccccc2N(C(C)=O)C1c1cncc(C=CCCCCCN2CCCC2)c1` (stereo not shown) [compound 124, 124], for which the inhibition at 50 µM against JARID1A (KDM5A) was determined as 20%. On JMJD2A (KDM4A) [1], the inhibition at 18.75 µM was -12.7%.

Take `CC(=O)N1c2ccccc2[C@](C#N)(c2ccccc2)[C@H]1c1cncc(C#CCCCCCN2CCCC2)c1` (racemic) [compound 4, 4]: the inhibition at 50 µM at JARID1A (KDM5A) was 39%. Moreover, the inhibition at 18.75 µM on JMJD2A (KDM4A) [1] turned out to be 10.2%.

With `CC(=O)N1c2ccccc2[C@@](C#N)(c2ccccc2)[C@H]1c1cncc(OCCCCCCCN2CCCC2)c1` (racemic) [compound 145, (2RS,3SR)-1-Acetyl-3-phenyl-2-(5-((7-(pyrrolidin-1-yl)heptyl)oxy)pyridin-3-yl)indoline-3-carbonitrile], the inhibition at 50 µM against JARID1A (KDM5A) was determined as 36.7%. Further, the IC50 at JARID1A (KDM5A) (read-out: KDM5A pIC50 (converted)) is more than 50.1 µM; on JMJD2A (KDM4A) [2], more than 20 µM; on KDM2A (read-out: KDM2A RapidFire pIC50 (converted)), 1.01 µM. The inhibition at 18.75 µM at JMJD2A (KDM4A) [1] is -9.59%.

With `CC(=O)N1c2ccccc2[C@](C#N)(c2ccccc2)[C@H]1c1ccc(CCCCCCCN2CCCC2)o1` (racemic) [compound 7, 7], on JARID1A (KDM5A), the inhibition at 50 µM came to 47.5%. For the same molecule, the inhibition at 18.75 µM on JMJD2A (KDM4A) [1] was found to be 8.5%.

For the molecule `CC(=O)N1c2ccccc2[C@](C#N)(c2ccccc2)[C@H]1c1cncc(OCCOCCOCCN2CCCC2)c1` (racemic) [compound 148, (2RS,3RS)-1-Acetyl-3-phenyl-2-(5-(2-(2-(2-(pyrrolidin-1-yl)ethoxy)ethoxy)ethoxy)pyridin-3-yl)indoline-3-carbonitrile], the IC50 at JMJD2A (KDM4A) [2] is more than 20 µM. Further, the inhibition at 18.75 µM on JMJD2A (KDM4A) [1] is -5.9%.

As to `CC(=O)N1c2ccccc2[C@](C#N)(c2ccccc2)[C@H]1c1cncc(OCCCCCCCN2CCCC2)c1` (racemic) [compound 3, 3], the inhibition at 50 µM at JARID1A (KDM5A) came out at 24%. The inhibition at 18.75 µM at JMJD2A (KDM4A) [1] was -5.4%.

As for `CC(=O)N1c2ccccc2[C@@](C#N)(c2ccccc2)[C@H]1c1cccc(/C=C/CCCCCN2CCCC2)c1` (relative stereo) [compound 126, 126], the “KDM4A pIC50” value on JMJD2A (KDM4A) [2] was less than 4.7. Further, the “KDM2A RapidFire pIC50” value at KDM2A is reported as 5.983. In addition, the inhibition at 18.75 µM on JMJD2A (KDM4A) [1] came out at 27.8%.

For `CC(=O)N1c2ccccc2[C@](C#N)(c2ccccc2)[C@H]1c1cncc(CCCCCCCN2CCCC2)c1` (racemic) [compound 6, 6], the inhibition at 50 µM on JARID1A (KDM5A) stood at 25.5%. Moreover, the inhibition at 18.75 µM on JMJD2A (KDM4A) [1] is -1.1%.

In the case of `CC(=O)N1c2ccccc2[C@](C#N)(c2ccccc2)[C@H]1c1ccc(C#CCCCCCN2CCCC2)o1` (relative stereo) [compound 132, 132], the inhibition at 50 µM against JARID1A (KDM5A) was 49.1%. For the same molecule, the “KDM5A pIC50” value at JARID1A (KDM5A) (inhibitor) is on record as less than 4.3. The “KDM4A pIC50” value at JMJD2A (KDM4A) [2] is reported as less than 4.7. Besides, the “KDM2A RapidFire pIC50” value at KDM2A came to 5.990. Besides, the inhibition at 18.75 µM on JMJD2A (KDM4A) [1] was 18.3%.

Turning to `CC(=O)N1c2ccccc2[C@](C#N)(c2ccccc2)[C@H]1c1cncc(CCCCCCCN2CCCC2)c1` [(R,R)-6], at JARID1A (KDM5A), the inhibition at 50 µM was determined as 40%. Besides, the inhibition at 18.75 µM at JMJD2A (KDM4A) [1] was 7.8%.

Turning to `CC(=O)N1c2ccccc2C(C#N)(c2ccccc2)C1c1cc(CCCCCCCN2CCCC2)co1` (stereo not shown) [compound 8, 8], the inhibition at 50 µM at JARID1A (KDM5A) turned out to be 23%. Also, the inhibition at 18.75 µM at JMJD2A (KDM4A) [1] turned out to be 21.8%.

`CC(=O)N1c2ccccc2C(C#N)(c2ccccc2)C1c1cncc(C#CCCCCCN2CCCC2)c1` (stereo not shown) [compound 130, 130]: the inhibition at 50 µM against JARID1A (KDM5A) was found to be 30.9%. The inhibition at 18.75 µM at JMJD2A (KDM4A) [1] is -1.3%.
